Measured values as given in patent publication US8959984B2, “Proteome-wide quantification of small molecule binding to cellular target proteins” (priority 2007, dated 2015).
Where two headings read alike, the source gives them in different places.

Key:
MAP3K6 = target: T1, MAP3K6 (Homo sapiens, UniProt O95382); experiment: binding to immobilized V16742 (IVA1/IVA2, HeLa lysate, MS)
T1 construct: endogenous in cells; host or cells: HeLa S3
T1 sequence (O95382 1-1288): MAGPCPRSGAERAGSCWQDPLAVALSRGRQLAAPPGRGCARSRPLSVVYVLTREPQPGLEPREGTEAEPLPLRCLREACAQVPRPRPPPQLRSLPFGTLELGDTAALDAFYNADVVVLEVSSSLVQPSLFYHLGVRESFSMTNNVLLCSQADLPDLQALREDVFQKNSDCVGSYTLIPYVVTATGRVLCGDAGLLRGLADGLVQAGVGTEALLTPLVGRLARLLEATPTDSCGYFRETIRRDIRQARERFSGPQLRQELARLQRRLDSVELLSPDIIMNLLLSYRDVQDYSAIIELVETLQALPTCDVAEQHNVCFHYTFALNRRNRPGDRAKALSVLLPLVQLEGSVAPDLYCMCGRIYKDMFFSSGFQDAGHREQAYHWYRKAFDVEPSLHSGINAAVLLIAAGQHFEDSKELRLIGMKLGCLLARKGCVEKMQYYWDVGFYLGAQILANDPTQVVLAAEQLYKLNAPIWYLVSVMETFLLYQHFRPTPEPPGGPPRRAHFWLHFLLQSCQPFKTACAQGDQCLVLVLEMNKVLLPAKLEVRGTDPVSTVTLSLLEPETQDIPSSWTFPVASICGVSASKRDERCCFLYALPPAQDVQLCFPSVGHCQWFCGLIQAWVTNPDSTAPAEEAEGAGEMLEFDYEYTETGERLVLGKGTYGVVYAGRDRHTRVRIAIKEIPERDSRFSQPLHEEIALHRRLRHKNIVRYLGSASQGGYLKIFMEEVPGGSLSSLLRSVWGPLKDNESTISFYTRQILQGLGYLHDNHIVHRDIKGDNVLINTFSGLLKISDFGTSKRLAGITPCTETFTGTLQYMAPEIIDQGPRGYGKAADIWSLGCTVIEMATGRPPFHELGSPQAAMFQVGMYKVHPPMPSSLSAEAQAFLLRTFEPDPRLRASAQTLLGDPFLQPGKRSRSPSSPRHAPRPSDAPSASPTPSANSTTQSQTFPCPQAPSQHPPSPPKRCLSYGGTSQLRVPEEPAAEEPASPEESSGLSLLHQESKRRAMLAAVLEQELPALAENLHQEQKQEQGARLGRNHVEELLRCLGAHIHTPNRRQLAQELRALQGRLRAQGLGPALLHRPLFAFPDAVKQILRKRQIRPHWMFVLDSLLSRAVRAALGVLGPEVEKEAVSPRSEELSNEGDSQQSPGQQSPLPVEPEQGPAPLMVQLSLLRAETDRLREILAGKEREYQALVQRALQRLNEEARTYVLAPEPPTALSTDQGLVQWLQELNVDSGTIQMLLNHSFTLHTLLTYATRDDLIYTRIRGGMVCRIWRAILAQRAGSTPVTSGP

SgK085 (MYLK3) = target: T2, SgK085 (MYLK3) (Homo sapiens, UniProt Q32MK0)
T2 sequence (Q32MK0 1-819): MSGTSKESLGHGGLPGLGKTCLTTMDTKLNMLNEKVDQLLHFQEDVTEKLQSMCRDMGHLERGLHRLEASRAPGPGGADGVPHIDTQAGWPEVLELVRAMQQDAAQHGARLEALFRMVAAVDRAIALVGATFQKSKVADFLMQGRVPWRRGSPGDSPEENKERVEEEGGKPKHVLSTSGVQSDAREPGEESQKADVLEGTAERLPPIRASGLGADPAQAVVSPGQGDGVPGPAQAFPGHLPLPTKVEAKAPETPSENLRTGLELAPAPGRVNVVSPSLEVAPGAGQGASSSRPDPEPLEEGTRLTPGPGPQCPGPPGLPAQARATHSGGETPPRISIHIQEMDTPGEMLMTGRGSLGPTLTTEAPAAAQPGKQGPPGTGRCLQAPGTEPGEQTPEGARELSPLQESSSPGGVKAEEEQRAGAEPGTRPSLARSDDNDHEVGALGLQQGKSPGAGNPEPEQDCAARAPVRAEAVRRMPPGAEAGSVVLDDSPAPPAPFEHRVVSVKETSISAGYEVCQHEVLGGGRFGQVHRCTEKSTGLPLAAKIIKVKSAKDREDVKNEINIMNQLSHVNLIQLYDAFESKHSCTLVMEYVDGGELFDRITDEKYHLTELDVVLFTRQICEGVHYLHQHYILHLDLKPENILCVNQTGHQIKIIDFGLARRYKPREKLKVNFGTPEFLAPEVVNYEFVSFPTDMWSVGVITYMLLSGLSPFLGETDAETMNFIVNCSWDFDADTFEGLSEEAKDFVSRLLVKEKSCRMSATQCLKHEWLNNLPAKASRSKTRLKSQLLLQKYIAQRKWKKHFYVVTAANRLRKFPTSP

SPR = SPR (Homo sapiens, UniProt P35270)
Chain of SPR (P35270 whole entry): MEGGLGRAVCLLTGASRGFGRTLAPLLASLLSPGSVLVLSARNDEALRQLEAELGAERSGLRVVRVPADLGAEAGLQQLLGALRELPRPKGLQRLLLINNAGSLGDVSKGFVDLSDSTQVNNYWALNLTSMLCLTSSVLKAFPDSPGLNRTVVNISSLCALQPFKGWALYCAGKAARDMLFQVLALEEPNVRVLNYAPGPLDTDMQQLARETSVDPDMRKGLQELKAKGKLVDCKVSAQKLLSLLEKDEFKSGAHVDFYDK

| SMILES | Percent bound at various 16742 conc (MAP3K6; Experiment 1, 8.74 μM 16742) [%] | Percent bound at various 16742 conc (MAP3K6; Experiment 1, 52 μM 16742) [%] | Kd (MAP3K6; Experiment 1, read-out: Kd) [µM] | Percent bound at various 16742 conc (MAP3K6; Experiment 2, 1.87 μM 16742) [%] | Percent bound at various 16742 conc (MAP3K6; Experiment 2, 8.74 μM 16742) [%] | Percent bound at various 16742 conc (MAP3K6; Experiment 2, 52 μM 16742) [%] | Kd (MAP3K6; Experiment 2, read-out: Kd) [µM] | Kd (MAP3K6; average of two experiments, read-out: Kd Avg) [µM] | rAVERAGE (10 nM/0 nM Gef.) (SgK085 (MYLK3)) | rAVERAGE (100 nM/0 nM Gef.) (SgK085 (MYLK3)) | rAVERAGE (1000 nM/0 nM Gef.) (SgK085 (MYLK3)) | rAVERAGE (10000 nM/0 nM Gef.) (SgK085 (MYLK3)) | rAVERAGE (10 nM/0 nM Gef.) (SPR) | rAVERAGE (100 nM/0 nM Gef.) (SPR) | rAVERAGE (1000 nM/0 nM Gef.) (SPR) | rAVERAGE (10000 nM/0 nM Gef.) (SPR) |
| --- | --- | --- | --- | --- | --- | --- | --- | --- | --- | --- | --- | --- | --- | --- | --- | --- |
| CC(C)n1c(=O)ccc2cnc(Nc3ccc(OCCN)cc3)nc21 [V16742] | 3.57 | 51.68 | 57.7 | 2.67 | 3.94 | 13.37 | 326 | 192 |  |  |  |  |  |  |  |  |
| COc1cc2ncnc(Nc3ccc(F)c(Cl)c3)c2cc1OCCCN1CCOCC1 [gefitinib] |  |  |  |  |  |  |  |  | 0.97 | 1.01 | 0.98 | 0.53 | 1.04 | 1.10 | 1.01 | 0.77 |
